Test results published in publication PMC3137752 (Alcohol (Fayetteville, N.Y.), 2010).

What was measured:
α6-100R-β3γ2 (α6β3γ2s) [1] = molecular target: α6-100R-β3γ2 (α6β3γ2s) (Rattus norvegicus, UniProt P18508+P30191, P30191:R119Q); experiment: radioligand association/dissociation kinetics, filtration; type: binding
α6-100R-β3γ2 (α6β3γ2s) [2] = molecular target: α6-100R-β3γ2 (α6β3γ2s) (Rattus norvegicus, UniProt P18508+P30191); experiment: as above; type: binding
Sequence of α6-100R-β3γ2 (α6β3γ2s) (Rattus norvegicus, UniProt P18508+P30191) (P30191 20-453): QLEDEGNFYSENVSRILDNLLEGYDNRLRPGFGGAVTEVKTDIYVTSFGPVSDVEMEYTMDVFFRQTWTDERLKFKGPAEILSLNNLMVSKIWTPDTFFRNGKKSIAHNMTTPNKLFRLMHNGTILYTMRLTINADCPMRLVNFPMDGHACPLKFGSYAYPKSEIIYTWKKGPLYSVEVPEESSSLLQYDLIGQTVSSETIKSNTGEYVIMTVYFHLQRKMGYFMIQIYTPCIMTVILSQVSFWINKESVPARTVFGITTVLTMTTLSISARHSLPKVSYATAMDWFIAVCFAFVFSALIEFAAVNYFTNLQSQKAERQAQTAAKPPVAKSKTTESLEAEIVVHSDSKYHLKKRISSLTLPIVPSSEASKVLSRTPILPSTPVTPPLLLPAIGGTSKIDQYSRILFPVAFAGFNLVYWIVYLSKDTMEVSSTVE
Sequence of α6-100R-β3γ2 (α6β3γ2s) (Rattus norvegicus, UniProt P18508+P30191) (P18508 39-466): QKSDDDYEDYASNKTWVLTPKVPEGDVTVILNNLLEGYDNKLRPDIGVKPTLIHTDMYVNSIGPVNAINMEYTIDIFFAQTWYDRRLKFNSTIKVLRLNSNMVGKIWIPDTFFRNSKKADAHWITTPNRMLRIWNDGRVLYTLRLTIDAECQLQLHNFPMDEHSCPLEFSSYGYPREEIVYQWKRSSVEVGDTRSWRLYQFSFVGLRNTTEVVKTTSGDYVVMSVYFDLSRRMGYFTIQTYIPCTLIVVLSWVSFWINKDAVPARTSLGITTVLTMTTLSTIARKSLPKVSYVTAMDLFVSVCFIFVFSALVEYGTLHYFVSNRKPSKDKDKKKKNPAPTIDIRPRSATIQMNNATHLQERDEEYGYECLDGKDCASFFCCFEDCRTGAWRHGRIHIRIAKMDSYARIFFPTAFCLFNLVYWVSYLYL
Sequence of α6-100R-β3γ2 (α6β3γ2s) (Rattus norvegicus, UniProt P18508+P30191) (P63079 26-473 partner): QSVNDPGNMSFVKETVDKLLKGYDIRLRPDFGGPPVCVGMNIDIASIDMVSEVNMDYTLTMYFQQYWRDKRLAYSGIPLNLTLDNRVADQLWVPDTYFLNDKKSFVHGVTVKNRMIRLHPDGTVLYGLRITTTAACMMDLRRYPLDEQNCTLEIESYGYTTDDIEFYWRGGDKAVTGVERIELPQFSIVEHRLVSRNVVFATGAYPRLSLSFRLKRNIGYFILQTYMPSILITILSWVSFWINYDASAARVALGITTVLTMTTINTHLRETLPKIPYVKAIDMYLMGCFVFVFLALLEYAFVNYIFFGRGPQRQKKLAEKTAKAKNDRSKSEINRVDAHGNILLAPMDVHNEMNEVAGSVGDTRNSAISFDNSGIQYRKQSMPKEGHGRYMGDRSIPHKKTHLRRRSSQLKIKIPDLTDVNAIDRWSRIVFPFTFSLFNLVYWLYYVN

Sequence of α6-100R-β3γ2 (α6β3γ2s) (Rattus norvegicus, UniProt P18508+P30191, P30191:R119Q) (P30191 20-453 R119Q): as the sequence (P30191 20-453) above, with R100Q counted along it
Sequence of α6-100R-β3γ2 (α6β3γ2s) (Rattus norvegicus, UniProt P18508+P30191, P30191:R119Q) (P18508 39-466): as the sequence (P18508 39-466) above
Sequence of α6-100R-β3γ2 (α6β3γ2s) (Rattus norvegicus, UniProt P18508+P30191, P30191:R119Q) (P63079 26-473 partner): as the sequence (P63079 26-473 partner) above

CCOC(=O)c1ncn2c1CN(C)C(=O)c1cc(N=[N+]=[N-])ccc1-2 [[^3H]Ro 15-4513]
Kd (α6-100R-β3γ2 (α6β3γ2s) [1]): 1 ± 0.1 nM
Kd (α6-100R-β3γ2 (α6β3γ2s) [2]): 2.4 ± 0.4 nM
